# Test: solubility in rubber mixtures
# Type: physicochemical
# Details: in particular for vehicle tires and other technical rubber articles
compound,measurement,value
"CC(C)CC(C)Nc1ccc2[nH]c3ccccc3c2c1 (stereo not shown) [compound according to the invention, N-(1,3-dimethylbutyl)-9H-carbazol-3-amine]",solubility in rubber mixtures,very good

# — patent publication US20250100969A1, “COMPOUND, RUBBER BLEND CONTAINING THE COMPOUND, VEHICLE TIRE COMPRISING THE RUBBER BLEND IN AT LEAST ONE COMPONENT, PROCESS FOR PRODUCING THE COMPOUND, AND USE OF THE COMPOUND AS AN AGE RESISTOR AND/OR ANTIOXIDANT” (Continental Reifen Deutschland GmbH, priority 2021, published 2025)
